This passage reports AC50 and Activity results from ChEMBL document CHEMBL3102764, “Discovery of 3-(trifluoromethyl)-1H-pyrazole-5-carboxamide activators of the M2 isoform of pyruvate kinase (PKM2)” (Bioorg Med Chem Lett, 2014).

Experiment [1] addresses T1, Pyruvate kinase PKM (Homo sapiens, UniProt P14618). As to the kind of experiment: Activation of PKM2 (unknown origin) assessed as PEP conversion to pyruvate measured as concentration required for 50% activation by luminescence assay.
Target sequence in this assay (P14618 whole entry): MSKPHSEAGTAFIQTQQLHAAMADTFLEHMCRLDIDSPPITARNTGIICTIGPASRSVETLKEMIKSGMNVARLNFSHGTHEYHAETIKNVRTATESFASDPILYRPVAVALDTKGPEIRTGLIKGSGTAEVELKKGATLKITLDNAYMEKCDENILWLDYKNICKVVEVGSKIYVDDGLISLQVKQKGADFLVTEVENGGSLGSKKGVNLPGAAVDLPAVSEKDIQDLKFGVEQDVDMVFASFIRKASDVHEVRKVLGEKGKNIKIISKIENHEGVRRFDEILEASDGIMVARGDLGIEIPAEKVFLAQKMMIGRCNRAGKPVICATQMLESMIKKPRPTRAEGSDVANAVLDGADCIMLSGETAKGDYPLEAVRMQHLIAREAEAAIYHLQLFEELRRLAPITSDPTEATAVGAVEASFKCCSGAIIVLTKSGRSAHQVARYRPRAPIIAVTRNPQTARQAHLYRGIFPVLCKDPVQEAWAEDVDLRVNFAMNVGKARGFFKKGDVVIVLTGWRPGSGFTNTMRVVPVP
For experiment [2], the target named is T1, Pyruvate kinase PKM. As to the kind of experiment: Activation of PKM2 in human A549 cells. Format: cell-based.
Target sequence in this assay (P14618 2-531 limits assumed): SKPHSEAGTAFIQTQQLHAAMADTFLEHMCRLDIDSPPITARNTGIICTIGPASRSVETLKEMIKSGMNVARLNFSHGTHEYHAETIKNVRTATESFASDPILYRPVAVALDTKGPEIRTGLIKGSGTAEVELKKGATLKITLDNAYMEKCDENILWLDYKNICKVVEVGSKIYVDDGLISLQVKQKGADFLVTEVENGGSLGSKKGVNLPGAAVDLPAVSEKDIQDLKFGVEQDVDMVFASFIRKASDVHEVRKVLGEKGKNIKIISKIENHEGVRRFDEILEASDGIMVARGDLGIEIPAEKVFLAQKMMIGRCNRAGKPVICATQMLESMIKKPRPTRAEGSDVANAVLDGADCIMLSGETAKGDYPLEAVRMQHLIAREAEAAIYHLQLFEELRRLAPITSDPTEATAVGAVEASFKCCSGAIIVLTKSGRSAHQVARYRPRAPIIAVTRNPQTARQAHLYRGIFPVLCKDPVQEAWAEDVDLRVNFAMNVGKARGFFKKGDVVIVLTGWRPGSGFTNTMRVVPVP
Experiment [3] addresses T1, Pyruvate kinase PKM. Nature of the experiment: Activation of PKM2 in human NCI-H1299 cells. Format: cell-based.
Target sequence in this assay (P14618 2-531 limits assumed): as above

Turning to `O=C(c1cc(Cl)n[nH]1)N(Cc1cccc2[nH]ncc12)CC1CCC1`, in experiment [1] (read-out: AC50), the AC50 is 2.93 µM. For the same compound, the Activity in experiment [2] is 5.94 µM; in experiment [3] it was 6.4 µM.

As to `O=C(c1cc(Br)c[nH]1)N(Cc1ccccc1)CC1CCC1`, the AC50 in experiment [1] (read-out: AC50) was determined as 2.3 µM.

Take `N#Cc1cc(C(=O)N(Cc2ccc(O)cc2F)CC2CCC2)[nH]n1`: the half-maximal activity concentration (AC50) in experiment [1] (read-out: AC50) is 4.47 µM.

Consider `N#Cc1ccc(CN(CC2CCC2)C(=O)c2cc(Br)c[nH]2)cc1`, for which the AC50 result in experiment [1] was “Not Active”.

Consider `O=C(c1cc(C(F)(F)F)n[nH]1)N(Cc1cccc2[nH]ccc12)CC1CCC1`, for which the Activity in experiment [2] was determined as 0.308 µM; in experiment [3] it was 0.364 µM.

In the case of `CCCN(Cc1ccccc1)C(=O)c1cc(Br)c[nH]1`, in experiment [1] (read-out: AC50), the AC50 was 6 µM.

With `O=C(c1cc(Cl)n[nH]1)N(Cc1cccc2[nH]ccc12)CC1CCC1`, in experiment [1] (read-out: AC50), the AC50 turned out to be 0.757 µM. This compound also yielded an Activity in experiment [2] of 6.73 µM.

Consider `O=C(c1cc(Br)c[nH]1)N(Cc1cccc(O)c1)CC1CCC1`, for which the AC50 in experiment [1] (read-out: AC50) was determined as 3.03 µM.

For the compound `CCCCN(Cc1ccccc1)C(=O)c1cc(Br)c[nH]1`, the AC50 in experiment [1] (read-out: AC50) was determined as 6.33 µM.

As to `COc1ccc(CN(CC2CCC2)C(=O)c2cc(Br)c[nH]2)cc1`, in experiment [1], the AC50 entry is given as “Not Active”.

On to `O=C(NCc1ccccc1)c1cc(Br)c[nH]1`, for which the AC50 in experiment [1] (read-out: AC50) came to 36 µM.

For the compound `Nc1cc(C(=O)N(Cc2ccc(O)cc2F)CC2CCC2)[nH]n1`, the AC50 in experiment [1] (read-out: AC50) was over 30 µM.

With `O=C(c1cc(Br)n[nH]1)N(Cc1cccc2[nH]c(=O)sc12)CC1CCC1`, the AC50 in experiment [1] (read-out: AC50) worked out at 3.05 µM. Also, the results for the Activity in experiment [2] and in experiment [3] were 12.9 µM and 16.6 µM, respectively.

With `O=C(c1cc(Br)c[nH]1)N(Cc1ccccc1)CC1CC1`, the AC50 in experiment [1] (read-out: AC50) turned out to be 12.2 µM.

Regarding `O=C(c1cc(Br)c[nH]1)N(Cc1ccccc1)CC1CCCCC1`, the AC50 result in experiment [1] is “Not Active”.

Turning to `O=C(c1cc(Br)c[nH]1)N(Cc1ccc(O)cc1F)CC1CCC1`, the AC50 in experiment [1] (read-out: AC50) is 0.75 µM.

Consider `O=C(c1cc(Cl)n[nH]1)N(Cc1ccc(O)cc1F)CC1CCC1`, for which the Activity in experiment [2] came to 0.45 µM; in experiment [3], 0.3 µM.

In the case of `CCCCCN(Cc1ccccc1)C(=O)c1cc(Br)c[nH]1`, in experiment [1] (read-out: AC50), the AC50 is 4.45 µM.

In the case of `Nc1ccc(CN(CC2CCC2)C(=O)c2cc(Br)c[nH]2)cc1`, in experiment [1], the AC50 result is recorded as “Not Active”.

On to `O=C(c1cc(Br)c[nH]1)N(Cc1ccccc1)CC1CCCC1`, for which, in experiment [1], the AC50 entry is “Not Active”.

On to `CCN(Cc1ccccc1)C(=O)c1cc(Br)c[nH]1`, for which the AC50 result in experiment [1] was “Not Active”.

Take `O=C(c1cc(Br)c[nH]1)N(Cc1ccccc1F)CC1CCC1`: the AC50 in experiment [1] (read-out: AC50) turned out to be 3.9 µM.

As for `O=C(c1cc(Br)n[nH]1)N(Cc1cccc2[nH]ncc12)CC1CCC1`, the AC50 in experiment [1] (read-out: AC50) was 3.13 µM.

Turning to `O=C(c1cc(Br)c[nH]1)N(Cc1ccc(Cl)cc1)CC1CCC1`, in experiment [1], the AC50 result is listed as “Not Active”.

As for `O=C(c1cc(C(F)(F)F)n[nH]1)N(Cc1ccc(O)cc1F)CC1CCC1`, the Activity in experiment [2] worked out at 0.26 µM; in experiment [3], 0.22 µM.

On to `O=C(c1cc(Br)c[nH]1)N(Cc1ccc(F)cc1)CC1CCC1`, for which, in experiment [1] (read-out: AC50), the AC50 worked out at 12.1 µM.

Consider `O=C(c1cc(Br)n[nH]1)N(Cc1cccc2[nH]cnc12)CC1CCC1`, for which the results for the Activity in experiment [2] and in experiment [3] were 1.99 µM and 1.42 µM, respectively.

Regarding `O=C(c1cc(Br)c[nH]1)N(Cc1cccc(F)c1)CC1CCC1`, in experiment [1] (read-out: AC50), the AC50 was 3.85 µM.

For `O=C(c1cc(Br)c[nH]1)N(Cc1ccc(O)cc1)CC1CCC1`, the AC50 in experiment [1] (read-out: AC50) was determined as 1.71 µM.

As to `O=C(c1cc(Br)n[nH]1)N(Cc1ccc(O)cc1F)CC1CCC1`, the AC50 in experiment [1] (read-out: AC50) amounted to 0.034 µM. In addition, the Activity was determined as 0.06 µM in experiment [2] and 0.055 µM in experiment [3].

As for `O=C(c1cc(Br)c[nH]1)N(Cc1ccccc1O)CC1CCC1`, in experiment [1] (read-out: AC50), the AC50 was 1.29 µM.
